Reference: US11377442B2, “Small molecule agonists and antagonists of NR2F6 activity” (ZANDER THERAPEUTICS, INC., priority 2016, dated 2022)
Where two headings read alike, the source gives them in different places.

Legend:
Type in all cases: cell-based
HEK293 pGL4 = experiment: Firefly_pGL signal, cmpd/DMSO (pGL4 control cells); conditions: Homo sapiens
NR2F6 = biological target: T1, NR2F6 (Homo sapiens, UniProt P10588); experiment: NR2F6 agonist screening, Firefly signal cmpd/DMSO
T1 construct: expressed in transfected cells; also transient transfection
T1 sequence (P10588 1-404): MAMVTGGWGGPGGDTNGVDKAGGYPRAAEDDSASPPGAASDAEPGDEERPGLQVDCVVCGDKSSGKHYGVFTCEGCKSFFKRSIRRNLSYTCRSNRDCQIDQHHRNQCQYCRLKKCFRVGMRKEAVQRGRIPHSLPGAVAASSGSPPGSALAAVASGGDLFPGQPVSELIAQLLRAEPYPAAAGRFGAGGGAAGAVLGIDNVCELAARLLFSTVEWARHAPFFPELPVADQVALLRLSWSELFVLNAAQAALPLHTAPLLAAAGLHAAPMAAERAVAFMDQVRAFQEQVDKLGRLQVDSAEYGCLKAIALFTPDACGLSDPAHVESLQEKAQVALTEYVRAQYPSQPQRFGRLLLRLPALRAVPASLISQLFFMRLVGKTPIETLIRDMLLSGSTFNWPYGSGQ

NR2F6 LBD = biological target: T2, NR2F6 LBD (Homo sapiens, UniProt P10588); experiment: NR2F6 LBD transient transfection; conditions: LBD
T2 construct: expressed in transfected cells
T2 sequence (P10588 165-393 limits assumed): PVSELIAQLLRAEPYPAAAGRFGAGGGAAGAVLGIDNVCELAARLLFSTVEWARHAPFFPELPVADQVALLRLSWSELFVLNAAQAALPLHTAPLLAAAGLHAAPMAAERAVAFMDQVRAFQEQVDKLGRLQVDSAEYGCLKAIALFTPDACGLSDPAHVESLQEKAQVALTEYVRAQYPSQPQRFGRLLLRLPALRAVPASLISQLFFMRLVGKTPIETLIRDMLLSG
Summary of the method: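 LBD-transfected cells treated at 40, 10, 2 and 0.5 μM (4 replicates); cytotoxicity measured in parallel, normalized to DMSO (0%) and zero signal (100%). Higher concentrations excluded where signal loss reflected toxicity.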

Renilla = Renilla signal in NR2F6 agonist screening, cmpd/DMSO; conditions: Renilla, F4
[1] = read-out: Renilla, F4, cmpd/DMSO (mean)
[2] = 1% FBS, read-out: Renilla, F4, 1% FBS, cmpd/DMSO (mean)
[3] = 10% FBS, read-out: Renilla, F4, 10% FBS, cmpd/DMSO (mean)

Firefly F4, cmpd/DMSO (mean) (NR2F6; 0.5 uM): 1.8
Firefly F4, cmpd/DMSO (mean) (NR2F6; 2 uM): 2.5
Firefly F4, cmpd/DMSO (mean) (NR2F6; 10 uM): 7.1
Firefly F4, cmpd/DMSO (mean) (NR2F6; 40 uM): 0.7
F4, Firefly/Renilla for S/B(F4) > 3 (NR2F6; 1% FBS, 10 uM): 2.7
Firefly, F4/pGL4 for S/B(F4) > 3 (NR2F6; 1% FBS, 10 uM): 1.6
F4, Firefly/Renilla for S/B(F4) > 3 (NR2F6; 10% FBS, 10 uM): 4.0
Firefly, F4/pGL4 for S/B(F4) > 3 (NR2F6; 10% FBS, 10 uM): 2.5
Firefly, F4, 1% FBS, cmpd/DMSO (mean) (NR2F6; 1% FBS, 0.5 uM): 1.3
Firefly, F4, 1% FBS, cmpd/DMSO (mean) (NR2F6; 1% FBS, 2 uM): 2.1
Firefly, F4, 1% FBS, cmpd/DMSO (mean) (NR2F6; 1% FBS, 10 uM): 4.4
Firefly, F4, 1% FBS, cmpd/DMSO (mean) (NR2F6; 1% FBS, 40 uM): 0.2
Firefly, F4, 10% FBS, cmpd/DMSO (mean) (NR2F6; 10% FBS, 0.5 uM): 1.1
Firefly, F4, 10% FBS, cmpd/DMSO (mean) (NR2F6; 10% FBS, 2 uM): 2.0
Firefly, F4, 10% FBS, cmpd/DMSO (mean) (NR2F6; 10% FBS, 10 uM): 7.5
Firefly, F4, 10% FBS, cmpd/DMSO (mean) (NR2F6; 10% FBS, 40 uM): 0.8
Activity, cmpd/DMSO (NR2F6; Table 31): 6.1
Firefly LBD, cmpd/DMSO (mean) (NR2F6 LBD; 0.5 uM): 1.0
Firefly LBD, cmpd/DMSO (mean) (NR2F6 LBD; 2 uM): 1.9
Firefly LBD, cmpd/DMSO (mean) (NR2F6 LBD; 10 uM): 4.9
Firefly LBD, cmpd/DMSO (mean) (NR2F6 LBD; 40 uM): 0.4
Structure (SMILES): O=S1(=O)C[C@H](N2CCCCC2)[C@@H](S(=O)(=O)c2ccc(Cl)cc2)C1 [Compound D123]
fold induction at 0.5 µM (HEK293 pGL4; HEK293, 0.5 uM, pGL4, read-out: Firefly pGL4, cmpd/DMSO (mean)): 1.2
fold induction at 2 µM (HEK293 pGL4; HEK293, 2 uM, pGL4, read-out: Firefly pGL4, cmpd/DMSO (mean)): 1.7
fold induction at 10 µM (HEK293 pGL4; HEK293, 10 uM, pGL4, read-out: Firefly pGL4, cmpd/DMSO (mean)): 3.4
fold induction at 40 µM (HEK293 pGL4; HEK293, 40 uM, pGL4, read-out: Firefly pGL4, cmpd/DMSO (mean)): 0.6
fold induction at 0.5 µM (HEK293 pGL4; HEK293, pGL4, 1% FBS, 0.5 uM, read-out: Firefly, pGL4, 1% FBS, cmpd/DMSO (mean)): 1.1
fold induction at 2 µM (HEK293 pGL4; HEK293, pGL4, 1% FBS, 2 uM, read-out: Firefly, pGL4, 1% FBS, cmpd/DMSO (mean)): 1.8
fold induction at 10 µM (HEK293 pGL4; HEK293, pGL4, 1% FBS, 10 uM, read-out: Firefly, pGL4, 1% FBS, cmpd/DMSO (mean)): 2.7
fold induction at 40 µM (HEK293 pGL4; HEK293, pGL4, 1% FBS, 40 uM, read-out: Firefly, pGL4, 1% FBS, cmpd/DMSO (mean)): 0.8
fold induction at 0.5 µM (HEK293 pGL4; HEK293, pGL4, 10% FBS, 0.5 uM, read-out: Firefly, pGL4, 10% FBS, cmpd/DMSO (mean)): 1.2
fold induction at 2 µM (HEK293 pGL4; HEK293, pGL4, 10% FBS, 2 uM, read-out: Firefly, pGL4, 10% FBS, cmpd/DMSO (mean)): 1.6
fold induction at 10 µM (HEK293 pGL4; HEK293, pGL4, 10% FBS, 10 uM, read-out: Firefly, pGL4, 10% FBS, cmpd/DMSO (mean)): 3
fold induction at 40 µM (HEK293 pGL4; HEK293, pGL4, 10% FBS, 40 uM, read-out: Firefly, pGL4, 10% FBS, cmpd/DMSO (mean)): 0.8
fold induction at 0.5 µM (Renilla; [1]): 1.1
fold induction at 2 µM (Renilla; [1]): 1.4
fold induction at 10 µM (Renilla; [1]): 1.9
fold induction at 40 µM (Renilla; [1]): 0.3
fold induction at 0.5 µM (Renilla; [2]): 1.1
fold induction at 2 µM (Renilla; [2]): 1.4
fold induction at 10 µM (Renilla; [2]): 1.6
fold induction at 40 µM (Renilla; [2]): 0.1
fold induction at 0.5 µM (Renilla; [3]): 0.9
fold induction at 2 µM (Renilla; [3]): 1.1
fold induction at 10 µM (Renilla; [3]): 1.9
fold induction at 40 µM (Renilla; [3]): 0.2
